This note sets out measurements from article PMC10138577, “Prenylated Flavonoids with Selective Toxicity against Human Cancers” (International Journal of Molecular Sciences, 2023).

Holding throughout (format): cell-based
Assay [1] has as its system MV-4-11 human myelomonocytic leukemia cells. Nature of the assay: In vitro antiproliferative assay (MTT), MV-4-11. The settings on record: MV-4-11, 72 h exposure, MTT, mean ± SD. An excerpt: (§1) The following established in vitro cell lines were applied: human breast adenocarcinoma (MCF-7 and SK-BR-3), human breast ductal carcinoma (T47D), human prostate adenocarcinoma (PC-3), human prostate carcinoma (Du145), human colorectal adenocarcinoma (HT-29 and LoVo), doxorubicin-resistant human colorectal adenocarcinoma (LoVo/Dx), human myelomonocytic leukemia (MV-4-11), human lung adenocarcinoma (A549), normal murine embryonic fibroblasts (BALB/3T3) and human lung microvascular endothelial (HLMEC). All the cell lines were obtained from the American Type Culture Collection (Rockville, MD, USA) except for LoVo and LoVo/DX, which were received from the Technical University of Gdańsk, Poland, courtesy of Prof. E. Borowski. All the cell lines were maintained in the Institute of Immunology and Experimental Therapy, Wroclaw, Poland. The cells were cultured in the following media: DMEM medium (BALB/3T3), Eagle medium (MCF-7, SK-BR-3, Du145), RPMI medium (HLMEC, MV-4-11) or RPMI 1640 + Opti-MEM (1:1) medium (A549, T47D, LoVo, LoVo/Dx, PC-3, HT-29). The DMEM medium was supplemented with 2 mM L-glutamine and 10% fetal bovine serum. The Eagle medium was supplemented with 4 mM L-glutamine, 10% fetal bovine serum, 1 mM sodium pyruvate for Du145 cells or 2 mM L-glutamine, 1% amino acids and 0.8 mg L^−1 of insulin for MCF-7 and SK-BR-3. The RPMI medium was supplemented with 2 mM L-glutamine, 1 mM sodium pyruvate and 10% fetal bovine serum. The RPMI 1640 + Opti-MEM (1:1) medium was supplemented with 2 mM L-glutamine, 5% fetal bovine serum (PC-3, A549) and 0.8 mg L^−1 insulin (T47D) or 1 mM sodium pyruvate (HT-29, LoVo, LoVoDx) and 0.1 ug/mL doxorubicin (LoVo/Dx). The media contained antibiotics: 100 µg mL^−1 streptomycin and 100 U mL^−1 penicillin. All the cell lines were incubated at 37 °C in a humid atmosphere saturated with 5% CO2.
The details of this technique were described by Antoszczak et al.. The proliferation inhibition of human myelomonocytic leukemia (MV-4-11) by the tested compounds was measured using the MTT assay. Thus, 20 µL of 3-(4,5-dimethylthiazol-2-yl)-2,5-diphenyl tetrazolium bromide solution was added to each well. Then, the plates were incubated for 4 h in a cell incubator to allow the cells to metabolize the yellow MTT to blue formazan. Next, 80 µL of lysing mixture (consisting of 67.5 g sodium dodecyl sulfate, 225 mL dimethylformamide and 275 mL distilled water) was added to each well. The plates were incubated for 24 h for the formazan crystals to be released from the cells and dissolved, and then the absorbance of each well was read on a 96-well microtiter plate reader (Multiskan FC photometer (Thermo Scientific)) at a 570 nm wavelength.
(§2) Twenty-four hours before incubation with the tested compounds, the cells were seeded in 96-well plates (Sarstedt, Nümbrecht, Germany) at a density of 10^4 cells per well (10^3 cells per well for HLMEC) in 100 µL of culture medium. The analysis of the antiproliferative activity of the compounds was performed using sulforhothamine B (SRB) (for all the adherent cells) or 3-(4,5-dimethylthiazol-2-yl)-2,5-diphenyl tetrazolium bromide (MTT) (for the leukemia cells—MV-4-11). The details of this technique have been previously described by Skehan et al. and Antoszak et al.. An assay was performed after 72 h of exposure at varying concentrations (from 0.1 to 100 µg mL^−1) of xanthohumol (1), aurone (2) and the reference drug cisplatin. Each compound at each concentration was tested in a single experiment, which was repeated at least 3 times. […] The results were calculated as the IC50 (μM) (half maximal inhibitory concentration), i.e., the concentration of the tested agent that inhibits the proliferation of the cancer cell population by half. The IC50 values and the mean values ± SD calculated for each experiment separately using GraphPad Prism software (GraphPad Software 9.1.0, San Diego, CA, USA) are presented in Table S1 in the Supplementary Materials.

The subject of assay [2] is Du145 human prostate carcinoma cells. Nature of the assay: In vitro antiproliferative assay (SRB), Du145. The settings on record: Du145, 72 h exposure, SRB, mean ± SD.
Excerpt: as §1
(§3) The details of this technique were described by Skehan et al.. After 72 h of incubation with the tested compounds, the cells were fixed in situ by gently adding cold 50% trichloroacetic acid—TCA (50 µL per well). The plates were incubated at 4 °C for 1 h and then washed five times with tap water and air-dried. Next, the cellular material fixed with TCA was stained by adding 50 µL of 0.4% sulforhodamine B dissolved in 1% acetic acid to each well and incubating the wells for 30 min at room temperature. The unbound dye was removed by washing the plates five times with 1% acetic acid, whereas the stain bound to the cells was extracted with 150 µL of 10 mM unbuffered Tris base for determination of the optical density at a 540 nm wavelength in a computer-interfaced, 96-well microtiter plate reader–Multiskan FC photometer (Thermo Scientific, Waltham, MA, USA). The background optical density was measured in the wells filled with culture medium, without the cells.
as §2, with “The IC50 values and the mean values ± SD calculated for each experiment separately using GraphPad Prism software (GraphPad Software 9.1.0, San Diego, CA, USA) are presented in Table S1 in the Supplementary Materials.” left out

In assay [3] the test system is LoVo/Dx doxorubicin-resistant human colorectal adenocarcinoma cells. Nature of the assay: In vitro antiproliferative assay (SRB), LoVo/Dx. The following applies: LoVo/Dx, 72 h exposure, SRB, mean ± SD.
Excerpt: as §1, §3
as §2, with “The IC50 values and the mean values ± SD calculated for each experiment separately using GraphPad Prism software (GraphPad Software 9.1.0, San Diego, CA, USA) are presented in Table S1 in the Supplementary Materials.” left out

Assay [4] relates to HT-29 human colorectal adenocarcinoma cells. The assay is described as follows: In vitro antiproliferative assay (SRB), HT-29. The settings on record: HT-29, 72 h exposure, SRB, mean ± SD.
Excerpt: as §1, §3
as §2, with “The IC50 values and the mean values ± SD calculated for each experiment separately using GraphPad Prism software (GraphPad Software 9.1.0, San Diego, CA, USA) are presented in Table S1 in the Supplementary Materials.” left out

The test system of assay [5] is PC-3 human prostate adenocarcinoma cells. Nature of the assay: In vitro antiproliferative assay (SRB), PC-3. The following applies: PC-3, 72 h exposure, SRB, mean ± SD.
Excerpt: as §1, §3
as §2, with “The IC50 values and the mean values ± SD calculated for each experiment separately using GraphPad Prism software (GraphPad Software 9.1.0, San Diego, CA, USA) are presented in Table S1 in the Supplementary Materials.” left out

Assay [6] relates to SK-BR-3 human breast adenocarcinoma cells. Nature of the assay: In vitro antiproliferative assay (SRB), SK-BR-3. The settings on record: SK-BR-3, 72 h exposure, SRB, mean ± SD.
Excerpt: as §1, §3
as §2, with “The IC50 values and the mean values ± SD calculated for each experiment separately using GraphPad Prism software (GraphPad Software 9.1.0, San Diego, CA, USA) are presented in Table S1 in the Supplementary Materials.” left out

The test system of assay [7] is LoVo human colorectal adenocarcinoma cells. The assay is described as follows: In vitro antiproliferative assay (SRB), LoVo. The settings on record: LoVo, 72 h exposure, SRB, mean ± SD.
Excerpt: as §1, §3
as §2, with “The IC50 values and the mean values ± SD calculated for each experiment separately using GraphPad Prism software (GraphPad Software 9.1.0, San Diego, CA, USA) are presented in Table S1 in the Supplementary Materials.” left out

The test system of assay [8] is human lung microvascular endothelial (HLMEC) cells. The assay is described as follows: In vitro cytotoxicity against normal cells (SRB), HLMEC. The following applies: HLMEC normal cell line, 72 h exposure, SRB, mean ± SD; read-out: Antiproliferative activity IC50.
Excerpt: as §1
(§4) The details of this technique were described by Skehan et al.. […] The unbound dye was removed by washing the plates five times with 1% acetic acid, whereas the stain bound to the cells was extracted with 150 µL of 10 mM unbuffered Tris base for determination of the optical density at a 540 nm wavelength in a computer-interfaced, 96-well microtiter plate reader–Multiskan FC photometer (Thermo Scientific, Waltham, MA, USA). The background optical density was measured in the wells filled with culture medium, without the cells.
(§5) Twenty-four hours before incubation with the tested compounds, the cells were seeded in 96-well plates (Sarstedt, Nümbrecht, Germany) at a density of 10^4 cells per well (10^3 cells per well for HLMEC) in 100 µL of culture medium. […] The results were calculated as the IC50 (μM) (half maximal inhibitory concentration), i.e., the concentration of the tested agent that inhibits the proliferation of the cancer cell population by half. […]

Assay [9] relates to MCF-7 human breast adenocarcinoma cells. The assay is described as follows: In vitro antiproliferative assay (SRB), MCF-7. The following applies: MCF-7, 72 h exposure, SRB, mean ± SD.
Excerpt: as §1, §3
as §2, with “The IC50 values and the mean values ± SD calculated for each experiment separately using GraphPad Prism software (GraphPad Software 9.1.0, San Diego, CA, USA) are presented in Table S1 in the Supplementary Materials.” left out

Assay [10] has as its system T47D human breast ductal carcinoma cells. Nature of the assay: In vitro antiproliferative assay (SRB), T47D. The following applies: T47D, 72 h exposure, SRB, mean ± SD.
Excerpt: as §1, §3
as §2, with “The IC50 values and the mean values ± SD calculated for each experiment separately using GraphPad Prism software (GraphPad Software 9.1.0, San Diego, CA, USA) are presented in Table S1 in the Supplementary Materials.” left out

The subject of assay [11] is normal murine embryonic fibroblasts (BALB/3T3). Nature of the assay: In vitro cytotoxicity against normal cells (SRB), BALB/3T3. The settings on record: BALB3T3 normal cell line, 72 h exposure, SRB, mean ± SD; read-out: Antiproliferative activity IC50.
Excerpt: as §1, §4, §5

The test system of assay [12] is A549 human lung adenocarcinoma cells. Nature of the assay: In vitro antiproliferative assay (SRB), A549. The settings on record: A549, 72 h exposure, SRB, mean ± SD.
Excerpt: as §1, §3
as §2, with “The IC50 values and the mean values ± SD calculated for each experiment separately using GraphPad Prism software (GraphPad Software 9.1.0, San Diego, CA, USA) are presented in Table S1 in the Supplementary Materials.” left out

Consider `N.N.[Cl][Pt][Cl]` [Cisplatin, cisplatin, reference compound], for which the IC50 in assay [1] was 1.11 ± 0.36 µM; in assay [2] it was 9.36 ± 0.63 µM; in assay [3] it was 8.97 ± 1.45 µM; in [4], 18.9 ± 2.25 µM; in assay [5], 15.3 ± 2.28 µM; in [6] it was 21.6 ± 3.93 µM. Besides, the IC50 in [7] came to 4.32 ± 0.9 µM; in [8], 1.26 ± 0.1 µM; in assay [9] it was 11.3 ± 0.99 µM; in assay [10], 13.1 ± 5.58 µM; in assay [11], 8.96 ± 2.15 µM; in assay [12], 11.3 ± 1.36 µM.
